The values that follow come from patent publication US20260199323A1, “LIGAND COMPOUNDS FOR E3 UBIQUITIN LIGASE, PROTEIN DEGRADERS DEVELOPED ON BASIS OF LIGAND COMPOUNDS, AND USES THEREOF” (GLUETACS THERAPEUTICS (SHANGHAI) CO., LTD., priority 2021, published 2026).

Where two headings read alike, the source gives them in different places.

One experiment deals with CCRF-CEM. The experiment is described as follows: CCK-8 tumor cell proliferation, CCRF-CEM. The note with it: Homo sapiens, CCRF-CEM, read-out: IC50 inhibiting proliferation of tumor cells, CCRF-CEM. The experiment is classed as cell-based, Human. The procedure, abridged: (§1)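 Proliferation was measured by CCK-8. Plated cells received compound 24 h later at ten 5-fold dilutions beginning at 10 μM.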

For a further experiment, the system named is HCC827. The experiment is described as follows: CCK-8 tumor cell proliferation, HCC827. Format: cell-based, Human. The note with it: for IC50: Homo sapiens, HCC827, read-out: IC50 inhibiting proliferation of tumor cells, HCC827; for IC50 for inhibiting the proliferation of tumor cells, HCC827: Table 11, designed based on EGFR inhibitors, 96 h. The procedure:
The tumor cells used herein were cultured in a cell culture medium listed in table 4 at 37° C. in an incubator with 5% CO2.
(§2) After 24 h, 100 μL of the inoculated cells were treated with 0.5 μL of the compounds of the present disclosure (including the compounds in Tables 1 and 3, and compounds of examples) at 10 different successively decreasing concentrations (starting at the highest concentration of 10 μM; 5-fold serial dilutions). After the cells were treated with the compounds of the present disclosure for a period of time, the cell viability detection reagent was added to the culture medium for cell viability assessment according to the instructions provided with the CCK-8 kit. […] The growth inhibition of the compounds of the present disclosure on cells was plotted by Prism Graphpad software, and the IC50 values of the compounds of the present disclosure were calculated therefrom.

The test system of the next experiment is MDA-MB-231. The experiment is described as follows: CCK-8 tumor cell proliferation, MDA-MB-231. Format: cell-based, Human. The note with it: Homo sapiens, MDA-MB-231, read-out: IC50 inhibiting proliferation of tumor cells, MDA-MB-231. The method in brief:
as §1

A further experiment has as its system MM.1S. The experiment is described as follows: CCK-8 tumor cell proliferation, MM.1S. The experiment is classed as cell-based. The note with it: Homo sapiens, MM1.S, MM.1S, read-out: IC50 inhibiting proliferation of tumor cells, MM.1S. The method in brief:
as §1

For a further experiment, the system named is SR. The experiment is described as follows: CCK-8 tumor cell proliferation, SR. Format: cell-based, Human. The note with it: Homo sapiens, SR, read-out: IC50 inhibiting proliferation of tumor cells, SR. The method in brief:
as §1

For the next experiment, the system named is LNcap. Nature of the experiment: CCK-8 tumor cell proliferation, LNcap. The experiment is classed as cell-based, Human. The note with it: Homo sapiens. Here is the method:
(§3) The tumor cells used herein were cultured in a cell culture medium listed in table 4 at 37° C. in an incubator with 5% CO2. Prior to experimentation, all cells used were correctly identified by STR profiling, and tested negative for mycoplasma through routine screenings.
as §2, with “IC50 values of the compounds of the present disclosure (including the compounds in Tables 1 and 3, and compounds of examples) were measured using the Meilun Cell Counting Kit-8 kit from Dalian Meilun Biotech Co., Ltd. Assay details are as follows: tumor cells were seeded in a 96-well plate at a density listed in Table 5. After 24” for “After 24”

The subject of the next experiment is PC-9. Nature of the experiment: CCK-8 tumor cell proliferation, PC-9. The experiment is classed as cell-based, Human. The note with it: Homo sapiens; Table 15, ALK inhibitor based; PC-9; read-out: IC50 inhibiting proliferation of tumor cells, PC-9.
A further experiment has as its system MM.1R. The experiment is described as follows: CCK-8 tumor cell proliferation, MM.1R. Format: cell-based. The note with it: read-out: IC50 inhibiting proliferation of tumor cells, MM.1R. The method in brief: as §1
Another experiment has as its system Mino. The experiment is described as follows: CCK-8 tumor cell proliferation, Mino. The note with it: Homo sapiens; Table 15, ALK inhibitor based; Mino; read-out: IC50 inhibiting proliferation of tumor cells, Mino. Format: cell-based, Human. The method in brief: as §1
Another experiment concerns Hep3B2.7-1. The experiment is described as follows: CCK-8 tumor cell proliferation, Hep3B2.7-1. The experiment is classed as cell-based, Human. The note with it: Homo sapiens; Table 19, IRAK4 inhibitor based; Hep3B2.7-1; read-out: IC50 inhibiting proliferation of tumor cells, Hep3B2.7-1. Here is the method:
as §3
as §2, with “IC50 values of the compounds of the present disclosure (including the compounds in Tables 1 and 3, and compounds of examples) were measured using the Meilun Cell Counting Kit-8 kit from Dalian Meilun Biotech Co., Ltd. Assay details are as follows: tumor cells were seeded in a 96-well plate at a density listed in Table 5. After 24” for “After 24”

The subject of a further experiment is Kasumi-1. The experiment is described as follows: CCK-8 tumor cell proliferation, Kasumi-1. The experiment is classed as cell-based, Human. The note with it: Homo sapiens; Table 19, IRAK4 inhibitor based; Kasumi-1; read-out: IC50 inhibiting proliferation of tumor cells, Kasumi-1. The procedure: as §3
as §2, with “IC50 values of the compounds of the present disclosure (including the compounds in Tables 1 and 3, and compounds of examples) were measured using the Meilun Cell Counting Kit-8 kit from Dalian Meilun Biotech Co., Ltd. Assay details are as follows: tumor cells were seeded in a 96-well plate at a density listed in Table 5. After 24” for “After 24”

Another experiment has as its system Jurkat. Nature of the experiment: CCK-8 tumor cell proliferation, Jurkat. Format: cell-based, Human. The note with it: Homo sapiens, Table 19, IRAK4 inhibitor based, read-out: IC50 inhibiting proliferation of tumor cells, Jurkat. The procedure, abridged: as §1
Where [1] appears, read: Table 20, BCL-2 inhibitor based.
Where [2] appears, read: Table 20, BCL-2 inhibitor based, LNcap, read-out: IC50 inhibiting proliferation of tumor cells, LNcap.
The mark [3] stands for this setting: Table 19, IRAK4 inhibitor based.
Setting [4] is: Table 19, IRAK4 inhibitor based, Lncap, read-out: IC50 inhibiting proliferation of tumor cells, Lncap.

Turning to `CC1(C)CCC(CN2CCN(c3ccc(C(=O)NS(=O)(=O)c4ccc(NCC5CCOCC5)c([N+](=O)[O-])c4)c(Oc4cnc5[nH]ccc5c4)c3)CC2)=C(c2ccc(Cl)cc2)C1` [ABT-199, Venetoclax, reference compound], the IC50 in the experiment with CCRF-CEM (Table 20, given as number) was greater than 10000 nM; with HCC827 (setting [1]) it was 5000 to 10000 nM; in the experiment on MDA-MB-231 (setting [1]), 1000 to 5000 nM; with MM.1S (Table 20, given as number), greater than 10000 nM; in the experiment with SR (setting [1]), 500 to 1000 nM; with LNcap (setting [2]) it was 1000 to 5000 nM.

For the compound `COc1cc2ncnc(Nc3cccc(Cl)c3F)c2cc1OCc1ccc2c(c1)CN(C1CCC(=O)NC1=O)C2=O` (centres unmarked) [GT-03325, 3-(5-(((4-((3-chloro-2-fluorophenyl)amino)-7-methoxyquinazolin-6-yl)oxy)methyl)-1-oxoisoindolin-2-yl)piperidine-2,6-dione], the “IC50 for inhibiting the proliferation of tumor cells, HCC827” value in the experiment with HCC827 is “A+”.

With `CCc1cc2c(cc1N1CCC(N(C)Cc3ccc4c(c3)CN(C3CCC(=O)NC3=O)C4=O)CC1)C(C)(C)c1[nH]c3cc(C#N)ccc3c1C2=O` (centres unmarked) [GT-03474, 8-(4-(((2-(2,6-dioxopiperidin-3-yl)-1-oxoisoindolin-5-yl)methyl)(methyl)amino)piperidin-1-yl)-9-ethyl-6,6-dimethyl-11-oxo-6,11-dihydro-5H-benzo[b]carbazole-3-carbonitrile], the IC50 in the experiment with HCC827 (Table 15, ALK inhibitor based) is 1000 to 5000 nM; in the experiment on MDA-MB-231 (Table 15, ALK inhibitor based), 1000 to 5000 nM; with SR (Table 15, ALK inhibitor based), less than 50 nM; with PC-9, 500 to 1000 nM.

For `CC1(C)CCC(c2ccc(Cl)cc2)=C(CN2CCN(c3ccc(C(=O)NS(=O)(=O)c4ccc(N[C@H](CCN5CCN(Cc6ccc7c(c6F)CN(C6CCC(=O)NC6=O)C7=O)CC5)CSc5ccccc5)c(S(=O)(=O)C(F)(F)F)c4)cc3)CC2)C1` (stereo partly drawn) [GT-03478, 4-(4-((4′-chloro-4,4-dimethyl-3,4,5,6-tetrahydro-[1,1′-biphenyl]-2-yl)methyl)piperazin-1-yl)-N-((4-(((2R)-4-(4-((2-(2,6-dioxopiperidin-3-yl)-4-fluoro-1-oxoisoindolin-5-yl)methyl)piperazin-1-yl)-1-(phenylthio)butan-2-yl)amino)-3-((trifluoromethyl)sulfonyl)phenyl)sulfonyl)benzamide], the IC50 in the experiment with CCRF-CEM (setting [1]), in the experiment on HCC827 (setting [1]), in the experiment with MDA-MB-231 (setting [1]), with MM.1S (setting [1]), in the experiment on SR (setting [1]) and in the experiment with MM.1R (setting [1]) was less than 50 nM each time. Also, in the experiment on LNcap (setting [2]), the IC50 was less than 50 nM.

As to `COc1cc(N2CCC(N(C)Cc3cc4c(cc3F)C(=O)N(C3CCC(=O)NC3=O)C4)CC2)ccc1Nc1ncc(Cl)c(Nc2ccccc2P(C)(C)=O)n1` (centres unmarked) [GT-03601, 3-(5-(((1-(4-((5-chloro-4-((2-(dimethylphosphoryl)phenyl)amino)pyrimidin-2-yl)amino)-3-methoxyphenyl)piperidin-4-yl)(methyl)amino)methyl)-6-fluoro-1-oxoisoindolin-2-yl)piperidine-2,6-dione], the IC50 with HCC827 (Table 15, ALK inhibitor based) was 100 to 500 nM; in the experiment with MDA-MB-231 (Table 15, ALK inhibitor based), 100 to 500 nM; with SR (Table 15, ALK inhibitor based), less than 50 nM; with Mino it was 5000 to 10000 nM; in the experiment with PC-9, 100 to 500 nM.

`O=C1CCC(N2Cc3cc(CN4CCN(c5ccc(-n6cc(NC(=O)c7coc(-c8ccnc(NCC(F)(F)F)c8)n7)c(C(F)F)n6)cc5)CC4)c(F)cc3C2=O)C(=O)N1` (centres unmarked) [GT-04269, N-(3-(difluoromethyl)-1-(4-(4-((2-(2,6-dioxopiperidin-3-yl)-6-fluoro-1-oxoisoindolin-5-yl)methyl)piperazin-1-yl)phenyl)-1H-pyrazol-4-yl)-2-(2-((2,2,2-trifluoroethyl)amino)pyridin-4-yl)oxazole-4-carboxamide]: the IC50 is 100 to 500 nM in the experiment with CCRF-CEM (setting [3]); less than 50 nM with Hep3B2.7-1; 50 to 100 nM with Kasumi-1; 100 to 500 nM with MM.1R (setting [3]); 100 to 500 nM in the experiment with LNcap (setting [4]); 50 to 100 nM with Jurkat.

As for `O=C1CCC(N2Cc3c(CN4CCN(c5ccc(-n6cc(NC(=O)c7coc(-c8ccnc(NCC(F)(F)F)c8)n7)c(C(F)F)n6)cc5)CC4)cccc3C2=O)C(=O)N1` (centres unmarked) [GT-04271, N-(3-(difluoromethyl)-1-(4-(4-((2-(2,6-dioxopiperidin-3-yl)-1-oxoisoindolin-4-yl)methyl)piperazin-1-yl)phenyl)-1H-pyrazol-4-yl)-2-(2-((2,2,2-trifluoroethyl)amino)pyridin-4-yl)oxazole-4-carboxamide], the IC50 was less than 50 nM in the experiment with CCRF-CEM (setting [3]); less than 50 nM in the experiment on Hep3B2.7-1; less than 50 nM in the experiment with Kasumi-1; less than 50 nM in the experiment with MM.1R (setting [3]); 50 to 100 nM in the experiment on LNcap (setting [4]); less than 50 nM in the experiment on Jurkat.

As to `O=C1CCC(N2C(=O)c3ccc(CN4CCN(c5ccc(-n6cc(NC(=O)c7coc(-c8ccnc(NCC(F)(F)F)c8)n7)c(C(F)F)n6)cc5)CC4)cc3C2=O)C(=O)N1` (centres unmarked) [GT-04272, N-(3-(difluoromethyl)-1-(4-(4-((2-(2,6-dioxopiperidin-3-yl)-1,3-dioxoisoindolin-5-yl)methyl)piperazin-1-yl)phenyl)-1H-pyrazol-4-yl)-2-(2-((2,2,2-trifluoroethyl)amino)pyridin-4-yl)oxazole-4-carboxamide], the IC50 was in the range of 500 to 1000 nM in the experiment on Hep3B2.7-1; 50 to 100 nM in the experiment with Kasumi-1; 500 to 1000 nM in the experiment with MM.1R (setting [3]); 100 to 500 nM in the experiment with LNcap (setting [4]); 1000 to 5000 nM in the experiment on Jurkat.

Consider `C=CC(=O)Nc1cc(Nc2nccc(-c3cn(C)c4ccccc34)n2)c(OC)cc1N(C)CCN(C)C` [osimertinib, Osimertinib, reference compound], for which the “IC50 for inhibiting the proliferation of tumor cells, HCC827” value in the experiment on HCC827 is “A+”.
